Values belong to the compound of their own block, whether it stands above or below them.
What was measured:
[1] = target: T1, full-length, N-terminal, 6His-tagged human HSET (Homo sapiens, UniProt Q9BW19); assay: In vitro enzymatic ATPase assay (ADP-Glo), MT-stimulated activity; type: biochemical; conditions: for reduction of HSET ATPase function: first-pass enzymatic assay, at 100 μM, n = 3
T1 construct: The protocol was optimized for use with full-length, N-terminal, 6His-tagged HSET and KSP; made in house; host or cells: Sf9 insect cells (baculovirus, pFastBac1)
T1 sequence (Q9BW19 1-673): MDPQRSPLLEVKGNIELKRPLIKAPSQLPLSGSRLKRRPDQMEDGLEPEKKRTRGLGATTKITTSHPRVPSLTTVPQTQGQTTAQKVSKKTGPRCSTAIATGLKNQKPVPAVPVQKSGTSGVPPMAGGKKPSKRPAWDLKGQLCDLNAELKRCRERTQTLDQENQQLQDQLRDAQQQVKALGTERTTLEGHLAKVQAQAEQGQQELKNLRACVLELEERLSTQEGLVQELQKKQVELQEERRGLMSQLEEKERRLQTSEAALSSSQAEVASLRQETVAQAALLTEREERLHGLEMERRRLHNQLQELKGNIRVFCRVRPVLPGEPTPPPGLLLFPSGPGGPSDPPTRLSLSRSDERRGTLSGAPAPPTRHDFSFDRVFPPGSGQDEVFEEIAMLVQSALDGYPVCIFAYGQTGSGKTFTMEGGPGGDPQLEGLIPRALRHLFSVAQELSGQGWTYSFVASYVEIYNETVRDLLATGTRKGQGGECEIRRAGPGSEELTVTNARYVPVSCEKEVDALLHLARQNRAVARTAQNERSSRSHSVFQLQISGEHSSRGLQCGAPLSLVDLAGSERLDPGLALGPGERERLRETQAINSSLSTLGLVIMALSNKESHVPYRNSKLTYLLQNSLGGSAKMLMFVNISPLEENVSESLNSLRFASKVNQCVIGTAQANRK
Description: (§1) The similarity decreases to 56% in the loop 5 binding cleft alone (residues 422–432; Figure 1A). Given the high degree of similarity between the proteins, and the potential for selective binding in the loop 5 cleft, the chemogenomics principle that similar proteins bind similar ligands was applied to HSET and KSP, and an in silico model for HSET binding was developed based on nearly 500 existing inhibitors of KSP in the ChEMBL database (see Experimental Procedures for details; [Klabunde, 2007]). Using the model parameters, we selected 200 compounds (in silico) from 20 million possibilities and further triaged them into 50 ligands that scored highest in the bioactivity model. We acquired and tested these ligands for in vitro activity using an ADP-Glo enzymatic assay (see Experimental Procedures for details; Figure 1B).
(§2) The protocol was optimized for use with full-length, N-terminal, 6His-tagged HSET and KSP, and measured the MT-stimulated activity of the proteins. Inhibition of the […] of HSET/KSP was observed spectrophotometrically by coupling the hydrolysis of ATP to oxidation of NADH via pyruvate kinase/lactate dehydrogenase reactions. The assay was initiated by […] an assay mixture containing the following components (final concentration): 6 nM protein, 0.07 mg/ml MTs (University Biologicals), […], 2 mM ATP, 2.7 mM MgCI, 1 mM phospho(enol)-pyruvate, 0.2 mM NADH, 50 μg/ml lactate dehydrogenase, 100 μg/ml pyruvate kinase, and various concentrations of inhibitor all in 50 mM Na PIPES (pH 6.8) at 37°C. The ADP-Glo detection assay (Promega) was performed as described in the manufacturer’s instructions. All compound additions were performed using a multidrop BioMek Nxp (Beckman Coulter). Plates were read using a Pherastar microplate reader (BMG Labtech).

[2] = target: T2, full-length, N-terminal, 6His-tagged KSP (Homo sapiens, UniProt P52732); assay: as above; type: biochemical; conditions: concentrations up to 250 μM, mean ± SD
T2 construct: IC50 values for CW069 and 3 against full-length, N-terminal, 6His-tagged HSET and KSP; made in house
T2 sequence (P52732 1-1056): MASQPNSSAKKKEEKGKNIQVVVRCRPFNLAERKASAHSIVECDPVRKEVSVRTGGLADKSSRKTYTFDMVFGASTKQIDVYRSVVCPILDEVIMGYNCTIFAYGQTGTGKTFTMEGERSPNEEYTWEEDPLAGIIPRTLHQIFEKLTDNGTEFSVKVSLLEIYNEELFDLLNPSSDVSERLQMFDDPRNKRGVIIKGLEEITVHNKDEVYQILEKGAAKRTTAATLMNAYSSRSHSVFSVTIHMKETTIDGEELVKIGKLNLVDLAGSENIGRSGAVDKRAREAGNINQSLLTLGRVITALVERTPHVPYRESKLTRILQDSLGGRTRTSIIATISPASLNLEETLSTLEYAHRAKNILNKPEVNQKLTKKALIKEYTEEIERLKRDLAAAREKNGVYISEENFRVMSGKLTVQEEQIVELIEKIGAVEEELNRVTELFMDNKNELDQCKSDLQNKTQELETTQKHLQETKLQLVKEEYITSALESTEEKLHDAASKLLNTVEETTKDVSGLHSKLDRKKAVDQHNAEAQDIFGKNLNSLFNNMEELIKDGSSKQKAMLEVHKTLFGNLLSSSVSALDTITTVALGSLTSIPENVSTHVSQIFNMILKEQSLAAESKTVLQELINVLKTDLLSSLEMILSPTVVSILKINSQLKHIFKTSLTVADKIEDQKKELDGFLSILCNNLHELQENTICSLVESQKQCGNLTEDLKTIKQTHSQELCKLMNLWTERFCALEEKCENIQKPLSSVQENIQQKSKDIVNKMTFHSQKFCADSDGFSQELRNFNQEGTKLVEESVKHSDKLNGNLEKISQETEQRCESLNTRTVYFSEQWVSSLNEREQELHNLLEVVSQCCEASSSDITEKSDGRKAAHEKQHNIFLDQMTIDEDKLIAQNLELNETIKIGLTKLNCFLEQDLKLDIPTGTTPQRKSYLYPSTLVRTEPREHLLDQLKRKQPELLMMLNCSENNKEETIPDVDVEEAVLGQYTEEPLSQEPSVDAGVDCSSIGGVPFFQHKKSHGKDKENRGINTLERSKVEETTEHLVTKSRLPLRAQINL
Description: as §1, §2

[3] = tested on: HeLa cells; assay: Immunofluorescence after time-lapse imaging, monopolar/bipolar spindles; type: cell-based, human; conditions: 200 μM CW069, 100 μM monastrol, 40 mitotic cells
Description: Immediately after time-lapse imaging, cells were fixed and antibodies against α-tubulin, CDK5RAP2, and DAPI were employed to visualize MTs, centrosomes, and DNA, respectively. […] Control HeLa cells formed mainly bipolar spindles (92%), with two centrosomes positioned at the spindle poles on either side of the metaphase plate (Figure 6C; Table 1). Similar numbers of bipolar spindles were formed in CW069-treated cells (95%; Figure 6C; Table 1). Monastrol-treated cells almost exclusively formed monopolar spindles (97%) with one pole surrounded by DNA ([Luo et al., 2004]; Figure 6C; Table 1). Normal bipolar spindle formation was indeed restored for many cells (45%) when the HSET inhibitor CW069 was administered along with the KSP inhibitor monastrol (Figure 6C; Table 1).
Cells were plated at a seeding density of 1.2 × 10^4 cells per well in Ibidi eight-well chamber slides, incubated for 24 hr, and then treated with compound for 3 hr. Prewarmed 4% paraformaldehyde in PBS was then added to each well to fix the cells before washing with PBS. Permeabilization and blocking was performed by incubating the slides with 1% BSA, 0.3% Triton X-100, 5% goat serum in PBS (PBS/B/0.3%T+5%GS) for 1 hr while shaking them at room temperature (RT). The slides were incubated with primary antibody solutions (mouse monoclonal anti-α-Tubulin [catalog number T9026; Sigma-Aldrich] and rabbit anti-CDK5RAP2 [catalog number A300-554A; Bethyl Laboratories]) at 4°C for 16 hr. The slides were washed four times with PBS/B/0.3%T+5%GS and then incubated with secondary antibody solutions (anti-rabbit IgG Alexa Fluor 488 [catalog number A21206] and anti-mouse IgG Alexa Fluor 647 [catalog number A20990]; Invitrogen) and DAPI (catalog number D3571; Invitrogen) in deionized water (300 nM) in the dark at RT for 1 hr. After four washes with PBS/B/0.3%T+5%GS, the solution was replaced with PBS and the slides were stored at 4°C until imaging was performed. Images were gathered with the use of an ICys Research Imaging Cytometer (CompuCyte) or a tandem confocal microscope (Leica).

[4] = tested on: HeLa cells; assay: Time-lapse video microscopy, mitotic duration, arrest and exit; type: cell-based, human; conditions: 200 μM CW069, 100 μM monastrol
Experimental: HSET is known to antagonize the activity of the related kinesin, KSP, during spindle formation ([Mountain et al., 1999]). Therefore, we used time-lapse video microscopy to investigate whether CW069-treated cells transit mitosis with normal kinetics, and whether the characteristic mitotic arrest induced by inhibition of KSP ([Mayer et al., 1999]) could be suppressed by cotreatment with CW069. To this end, HeLa cells were treated with either DMSO control (0.2%), 200 μM CW069, 100 μM monastrol, or CW069+monastrol for 60 min before being imaged every 5 min for a further 360 min. Mitotic duration (MD) was defined as the period of time between when the cells began to round up and the onset of anaphase. No statistical difference was recorded between control cells and cells treated with 200 μM CW069 (MD 55 ± 7 and 53 ± 6 min, respectively, Figures 6A, 6B, and S7). […] This effect was reversed to a large extent by cotreatment of CW069 with monastrol. […] This is consistent with observations previously reported for KSP-depleted cells ([Mountain et al., 1999]). […] Cells were synchronized in G2-M by incubation at 37°C and 5% CO2 for 24 hr with 9 μM of the CDK1 inhibitor RO-3306 (Merck). Cells were released by removal of the RO-3306 and four washings of 10 min each, at 37°C, with prewarmed culture media + 10% FBS. N1E-115 cells were transfected with siRNA (Supplemental Experimental Procedures) and imaged from 6 hr after transfection. Some RO-3306-synchronized cells were released with 200 μM CW069, 100 μM monastrol, or 0.2% DMSO, and imaging started immediately or 1 hr after treatment. Imaging was carried out for 24 hr, or for 4 hr in the case of the CW069/monastrol cotreatment. Imaging was conducted every 5 min in a humidified chamber with 37°C and 5% CO2, using a Nikon Eclipse TE2000-E microscope, and analyzed with NIS-Elements software (Nikon, Tokyo, Japan). The morphology of cells in mitosis and the mitotic fate (bipolar division, multipolar division, or cell death) were analyzed.

[5] = >200 cells that entered mitosis >60 min after treatment

reduction of HSET ATPase function [1]: > 60%
Structure (SMILES): O=C(c1ccc(N2CCCc3ccccc32)s1)n1ccnc1 [compound 1]

reduction of HSET ATPase function [1]: > 60%
Structure (SMILES): O=C(O)c1cc(I)ccc1NC1C(=O)OC(c2ccccc2)C1c1ccccc1 (stereo not shown) [compound 2]

IC50 [2]: 29 ± 2 µM
IC50 ([1]; concentrations up to 250 μM, mean ± SD): 30 ± 4 µM
selectivity for HSET over KSP ([1]; from IC50 values, HSET vs KSP): does not possess selectivity for HSET
Structure (SMILES): O=C(O)c1cc(Cl)c(Cl)cc1C(=O)N(Cc1ccccc1)Cc1ccccc1 [compound 3]

Structure (SMILES): CCOC(=O)C1=C(C)NC(=S)NC1c1cccc(O)c1 (stereo not shown) [monastrol, reference compound]
Bipolar Spindle (%) [3]: 3%
Monopolar Spindle (%) [3]: 97%
Mitotic Arrest (%) [4, 5]: 93%
Mitotic Exit (%) [4, 5]: 7%
Mitotic duration (MD) ([4]; rounding up to anaphase onset, cells transiting mitosis): 179 ± 68 min
